Assay results published in publication PMC12693327, “SERAAK2 as a Serotonin Receptor Ligand: Structural and Pharmacological In Vitro and In Vivo Evaluation” (Molecules, 2025).
“Also recorded” adds a separate entry of the source.

Key:
CYP2D6 = CYP2D6 (Homo sapiens, UniProt P10635); assay: CYP2D6 luminescent assay (Glo kit)
Description: The inhibitory potential of the compound against the CYP2D6 isoform was evaluated employing a methodology analogous to the CYP3A4 assay, albeit with a different set of reference compounds.
The effect of SERAAK2 on the activity of the cytochrome P450 isoforms CYP3A4 and CYP2D6 was tested using commercial luminescence assays (Glo kits bought from Promega, Medison, WI, USA). The experiment was performed twice with triplicate samples, following the manufacturer’s guidelines and established procedures.

SH-SY5Y cells = assay: MTS cytotoxicity assay in SH-SY5Y cells; assay type: cell-based, human; conditions: 72 h
Description: The cytotoxic potential of SERAAK2 was evaluated in two human-derived cell lines chosen for their physiological relevance: HepG2 (hepatocellular carcinoma) and SH-SY5Y (neuroblastoma). […] It is particularly noteworthy that the use of the SERAAK2 compound at a concentration of 30 µM reduces the number of viable cells below the level of the positive control (doxorubicin) at the same concentration (Table 3). […] Under the experimental conditions used, after 72 h of incubation, a fraction of doxorubicin-treated cells remains metabolically active and generates a low signal in the MTS assay. The enhanced signal reduction observed in the MTS assay for the tested compound, compared to doxorubicin, indicates strong cytotoxic activity leading to necrosis of the entire cell population.
An assessment of the cytotoxic potential of SERAAK2 was carried out utilizing the colorimetric MTS assay. This investigation was executed on both HepG2 and SH-SY5Y cell lines, adhering to an identical procedure. The cell lines, sourced from the American Type Culture Collection (Manassas, VA, USA), were cultured under standard conditions (5% CO2, 37 °C) in DMEM/F12 medium (#31330-038, ThermoFisher Scientific, Waltham, MA, USA). The medium was supplemented with 10% Fetal Bovine Serum (FBS, #A5256801, ThermoFisher Scientific) and a Penicillin–Streptomycin solution (#15140-122, ThermoFisher Scientific) until their use in the study. Cells within passage numbers 15 to 25 were plated in 96-well plates at a density of 5000 cells per well in 200 μL of medium and allowed to adhere during a 24 h incubation at 37 °C with 5% CO2. […] The plates were then subsequently returned to the 37 °C incubator, after which absorbance was recorded with a Spark microplate reader; this measurement occurred after 1 h for the HepG2 line and 3 h for the SH-SY5Y line. The ultimate cell viability percentage was determined by comparing results to the control wells, which represented 100% viability, and the wells treated with 10 μM doxorubicin, which were defined as 0% viability. […]

mice [1] = assay: Motor coordination, rotarod test; assay type: in vivo; conditions: for Motor coordination (rotarod, chimney): rotarod and chimney
Description: (§1) The investigated compound (SER2AAK2) was bought from Enamine (purity over 95%) and in all tests was administered intraperitoneally (i.p.), spread in a drop of Tween 80, and diluted with an aqueous solution of 0.5% methylcellulose (tylose) and injected 60 min before the tests in a volume of 10 mL/kg. Control groups received tylose injections of the same volume and via the same route of administration.
The effects of the SER2AAK2 compound were also measured in the rotarod and chimney tests. In the rotarod test, mice were evaluated for their ability to maintain balance on a constantly rotating rod (18 rpm) for 1 min. The chimney test involved placing a mouse in a horizontal polymer tube (3 cm diameter, 25 cm length). Once the mouse reached the far end, the tube was positioned vertically, requiring the animal to climb backwards to exit. Right motor coordination was defined as exiting the chimney within 60 s. Prior to testing, mice underwent a 3-day training. Only those animals that were able to stay on the rotating rod or leave the chimney within the required time were included in the study.

mice [2] = assay: Elevated plus maze (EPM) test; assay type: in vivo
Description: as §1
Anxiety behaviors were measured using the EPM test according to the Lister method. The apparatus consisted of four black-painted arms arranged in a plus-shaped configuration with a central platform (5 × 5 cm). Two opposing arms were open (30 × 5 cm), while the other two were enclosed (30 × 5 × 15 cm). The maze was elevated 38.5 cm above the floor and illuminated with dim, diffuse red light. Experiments were conducted in a quiet, dark room. […] The following parameters were recorded: time spent in the open arms, number of entries into the open arms, and total number of entries into both types of arms.

mice [3] = assay: Passive avoidance (PA) task, memory consolidation; assay type: in vivo; conditions: 7.5 mg/kg, retention phase, vs vehicle control
Description: as §1
The passive avoidance (PA) task measures a long-term memory, as it was reported by Venault et al.. The PA apparatus consists of a two-compartment acrylic box, one illuminated with fluorescent light (8 W) (10 cm × 13 cm × 15 cm) and another darkened (25 cm × 20 cm × 15 cm), connected by a guillotine door. Entrance of the animal to the darkened box was punished by an electric foot shock (0.15 mA for 2 s). The PA procedure was previously described. In particular, on the first day of the experiment [i.e., training (pre-test)], mice were placed individually into the illuminated compartment and allowed to explore this box. […] The latency time for entering the darkened compartment was recorded (TL1). […] The results were expressed as the latency index (LI), calculated by the following formula: TL1−TL2/TL1 where TL1 is the time needed to move to the dark compartment during a training session and TL2 is the time needed to re-enter the dark compartment, measured 24 h after TL1 (retention).

dopamine D2 receptor = tested on: dopamine D2 receptor; design: method as in PMID 38619283; conditions: cited from earlier work

Sequence of CYP2D6 (P10635 whole entry, canonical isoform): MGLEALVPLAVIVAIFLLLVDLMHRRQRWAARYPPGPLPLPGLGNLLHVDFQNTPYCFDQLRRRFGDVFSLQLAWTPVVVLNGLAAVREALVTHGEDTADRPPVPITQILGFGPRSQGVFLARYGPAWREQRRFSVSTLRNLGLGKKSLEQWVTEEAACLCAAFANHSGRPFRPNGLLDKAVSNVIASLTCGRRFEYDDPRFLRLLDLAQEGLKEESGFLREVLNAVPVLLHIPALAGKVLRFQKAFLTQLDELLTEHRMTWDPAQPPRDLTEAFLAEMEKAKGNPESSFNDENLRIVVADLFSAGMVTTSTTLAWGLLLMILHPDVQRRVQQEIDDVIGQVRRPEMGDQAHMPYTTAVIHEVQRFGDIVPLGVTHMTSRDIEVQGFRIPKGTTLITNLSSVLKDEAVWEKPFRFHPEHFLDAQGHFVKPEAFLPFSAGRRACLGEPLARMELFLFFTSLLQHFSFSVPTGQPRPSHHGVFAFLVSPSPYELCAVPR

## OC(CNCCc1c[nH]c2ccccc12)COc1ccc(Oc2ccccc2)cc1 (centres unmarked) [SERAAK2]
CYP2D6
  IC50: 1 µM
CYP2D6; human
  inhibition at 10 µM: 90 ± 1%
SH-SY5Y cells; 0.3 µM
  cytotoxic effects in SH-SY5Y cells: no cytotoxic effects
SH-SY5Y cells; 30 µM
  Percentage Reduction in the Number of Viable SH-SY5Y Cells [Mean ± SEM]: 108 ± 1%
Mice [1]; mice, 7.5 mg/kg i.p., 60 min before test, test length 1 min
  time held on rotating rod: about 60 s
Mice [1]; mice, 7.5 mg/kg
  Motor coordination (rotarod, chimney): inactive; also recorded: no effect
Mice [1]; mice, 15–60 mg/kg
  Motor coordination (rotarod, chimney): impairment
Mice [1]; mice, 60, 30 and 15 mg/kg i.p., 60 min before test
  motor coordination in the rotarod test: significant disturbances in motor coordination
Mice [2]; 7.5 mg/kg
  Elevated plus maze (EPM), open arm time and entries: ↑ open arm time and entries (7.5 mg/kg)—anxiolytic effect
Mice [2]; 7.5 mg/kg i.p.
  EPM total number of entries into both open and closed arms: remained unchanged
Mice [2]; 7.5 mg/kg i.p., p < 0.01 vs control
  EPM percentage of open arm entries: significant increase
Mice [2]; 7.5 mg/kg i.p., p < 0.05 vs control
  EPM percentage of time spent in the open arms: significant increase
Mice [3]
  PA memory consolidation, latency index: did not significantly change the latency index; also recorded: no effect on memory consolidation
Dopamine D2 receptor
  percent of inhibition at 10 μM, dopamine D2 receptor: 23 ± 6%
